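Step 1: Grow cells in 96-well plates. Step 2: Expose to compound for 48 hours at 5 concentrations. Step 3: Interpolate endpoints linearly; if unreached, use highest concentration. TGI is the concentration that stops growth completely.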
Key:
Test in all cases: NCI-60 cell line screen, 48 h
SK-MEL-2 melanoma = tested on: SK-MEL-2 melanoma
HCT-15 colon = tested on: HCT-15 colon
COLO 205 colon = tested on: COLO 205 colon
T-47D breast = tested on: T-47D breast
OVCAR-3 ovarian = tested on: OVCAR-3 ovarian
NCI-H23 lung = tested on: NCI-H23 lung
MDA-MB-231 breast = tested on: MDA-MB-231 breast
MDA-N = tested on: MDA-N
MALME-3M melanoma = tested on: MALME-3M melanoma
RPMI-8226 leukemia = tested on: RPMI-8226 leukemia

SMILES	TGI (SK-MEL-2 melanoma)	TGI (HCT-15 colon)	TGI (COLO 205 colon)	TGI (T-47D breast)	TGI (OVCAR-3 ovarian)	TGI (NCI-H23 lung)	TGI (MDA-MB-231 breast)	TGI (MDA-N)	TGI (MALME-3M melanoma)	TGI (RPMI-8226 leukemia)
COC(=O)C(Cc1c[nH]c2ccccc12)NP(=O)(O)OCC1OC(n2cc(Br)c(=O)[nH]c2=O)CC1O (configuration not stated)	> 100 µM	> 100 µM	> 100 µM	> 100 µM	> 100 µM	> 100 µM	> 100 µM	> 100 µM	> 100 µM	–
COc1ccc(-c2ncn(C[Si](C)(C)C)c2-c2ccc(OC)cc2)cc1	20.5 µM	18.3 µM	11.7 µM	–	–	18.5 µM	27.6 µM	10.9 µM	23.7 µM	4.57 µM
CC1SC2(CCCCC2)N(NC(=O)CSc2nc3ccc(Cl)cc3c(=O)n2-c2ccccc2)C1=O (configuration not stated)	31.8 µM	45.2 µM	29.2 µM	> 100 µM	32.8 µM	57.4 µM	35 µM	36.2 µM	60.6 µM	–
CC(=O)C(C(C)=O)[C@@H]1OC(C)(C)O[C@@H]1[C@H]1COC(C)(C)O1	> 100 µM	> 100 µM	> 100 µM	–	> 100 µM	> 100 µM	> 100 µM	70.1 µM	52.4 µM	> 100 µM
N#Cc1cc(Sc2ccc(N)c(C#N)c2)ccc1N	> 100 µM	38.9 µM	23.7 µM	> 100 µM	> 100 µM	–	> 100 µM	24.2 µM	36.4 µM	59.2 µM
CC(C)C(=O)/C=C/S/C=C/C(=O)C(C)C	> 100 µM	12.2 µM	8.16 µM	65.7 µM	14.9 µM	7.57 µM	15.9 µM	–	25.6 µM	–
COc1c(Br)cc2ccccc2c1-c1c(OC)c(Br)cc2ccccc12	> 100 µM	> 100 µM	> 100 µM	> 100 µM	> 100 µM	> 100 µM	> 100 µM	> 100 µM	–	> 100 µM
Nn1c(=O)[nH]c2ncn(Cc3ccccc3)c2c1=O	> 100 µM	> 100 µM	> 100 µM	> 100 µM	> 100 µM	> 100 µM	> 100 µM	> 100 µM	> 100 µM	–
CCN(CC)CC1CN=C(N)O1 (configuration not stated)	> 100 µM	> 100 µM	> 100 µM	> 100 µM	> 100 µM	> 100 µM	> 100 µM	> 100 µM	–	> 100 µM
Cn1c2ccccc2c2cc(N3CCCC3)c3c(c21)C(=O)N(c1ccccc1)C3=O	–	> 100 µM	> 100 µM	> 100 µM	> 100 µM	> 100 µM	> 100 µM	> 100 µM	> 100 µM	> 100 µM
COC(=O)C(Cc1ccc(N(C)C)cc1)(NC(=O)c1ccccc1)P(=O)(OC)OC (configuration not stated)	> 100 µM	> 100 µM	> 100 µM	–	–	> 100 µM	–	–	–	> 100 µM
C=CCOC(OCC=C)/C(Br)=C/C	> 100 µM	89.3 µM	52.9 µM	72.6 µM	> 100 µM	> 100 µM	> 100 µM	> 100 µM	–	> 100 µM
Cc1c(Cl)cccc1N=NC(=O)NNc1cccc(Cl)c1C	26.4 µM	30 µM	–	24.2 µM	31.4 µM	33.2 µM	37.1 µM	31 µM	30.8 µM	> 100 µM
O=C(C/C(=N/O)C(F)(F)F)c1cccs1	> 100 µM	> 100 µM	> 100 µM	> 100 µM	> 100 µM	> 100 µM	> 100 µM	> 100 µM	–	> 100 µM
O=C(O)/C(=C\c1ccc(O)cc1)c1cccc2ccccc12	> 100 µM	> 100 µM	–	> 100 µM	> 100 µM	> 100 µM	> 100 µM	> 100 µM	> 100 µM	–
Cc1cc2c(cc1C)C(=O)C1(C2)Cc2cc3c(cc2C1=O)CCC3 (configuration not stated)	> 100 µM	> 100 µM	> 100 µM	> 100 µM	> 100 µM	> 100 µM	–	> 100 µM	> 100 µM	> 100 µM
O=C(c1cccs1)N1CCCN(C(=O)c2cccs2)C1=S	> 100 µM	> 100 µM	> 100 µM	> 100 µM	> 100 µM	> 100 µM	> 100 µM	–	> 100 µM	> 100 µM
COc1cc(Cc2cnc(N)nc2N)cc(OC)c1OCCCNc1ccc([N+](=O)[O-])cc1	29.5 µM	37.8 µM	27.4 µM	25.3 µM	28.1 µM	31.8 µM	27.5 µM	32.9 µM	25.8 µM	–
O=c1[nH]nc(Nc2ccccc2)c2nnn(C3CCCCC3)c12	> 100 µM	> 100 µM	> 100 µM	–	> 100 µM	> 100 µM	> 100 µM	> 100 µM	> 100 µM	> 100 µM
COC(=O)C1CCC(=O)N1C(c1cc(OC)c(OC)c(OC)c1)c1cccc2ccccc12 (configuration not stated)	> 100 µM	> 100 µM	–	> 100 µM	> 100 µM	–	> 100 µM	> 100 µM	–	> 100 µM
CCCCSC1=N/C(=C\c2ccc(N(C)C)cc2)C(=O)N1	–	> 100 µM	> 100 µM	81.8 µM	73.1 µM	> 100 µM	75.8 µM	> 100 µM	> 100 µM	50.2 µM
CCN(CC)c1ccc(/C=C2\CCc3ccc([N+](=O)[O-])cc3C2=O)cc1	–	> 100 µM	> 100 µM	> 100 µM	56.9 µM	> 100 µM	> 100 µM	0.523 µM	> 100 µM	> 100 µM
CCCCCCCCCCCCCCCCCCNC(=S)/N=C/c1c(O)c2ccccc2[nH]c1=O	52.2 µM	29.4 µM	32.9 µM	90.5 µM	37.8 µM	37.5 µM	30.3 µM	35.3 µM	–	–
